In article PMC9229919, “4-Aminoquinoline-Based Adamantanes as Potential Anticholinesterase Agents in Symptomatic Treatment of Alzheimer’s Disease” (Pharmaceutics, 2022):
Where two headings read alike, the source gives them in different places.

Assays:
[1] = Ferric reducing antioxidant power (FRAP) assay; settings: for FRAP: mean ± standard error of three experiments; for antioxidant power lower than that of Trolox: on average;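 for FRAP: expressed as µM Fe2+ equivalents from an FeSO4·7H2O standard curve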
Method in brief: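 Compounds at 10 and 100 µM were mixed with FRAP reagent (300 mM acetate buffer pH 3.6, TPTZ in HCl, FeCl3, 10:1:1) and incubated 60 min at 37 °C. Fe^2+-TPTZ formation read at 593 nm against a blank. Values derived from an Fe2SO4·7H2O standard curve, three independent experiments.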

recombinant human AChE = target: T1, recombinant human AChE (Homo sapiens, UniProt P22303); experiment: biochemical; assay type: biochemical; settings: for IS: IS = Ki(BChE)/Ki(AChE), IS > 1 selective to AChE
T1 construct: gift of Dr Florian Nachon (Armed Forces Biomedical Research Institute, Brétigny-sur-Orge, France)
T1 sequence (P22303 32-614): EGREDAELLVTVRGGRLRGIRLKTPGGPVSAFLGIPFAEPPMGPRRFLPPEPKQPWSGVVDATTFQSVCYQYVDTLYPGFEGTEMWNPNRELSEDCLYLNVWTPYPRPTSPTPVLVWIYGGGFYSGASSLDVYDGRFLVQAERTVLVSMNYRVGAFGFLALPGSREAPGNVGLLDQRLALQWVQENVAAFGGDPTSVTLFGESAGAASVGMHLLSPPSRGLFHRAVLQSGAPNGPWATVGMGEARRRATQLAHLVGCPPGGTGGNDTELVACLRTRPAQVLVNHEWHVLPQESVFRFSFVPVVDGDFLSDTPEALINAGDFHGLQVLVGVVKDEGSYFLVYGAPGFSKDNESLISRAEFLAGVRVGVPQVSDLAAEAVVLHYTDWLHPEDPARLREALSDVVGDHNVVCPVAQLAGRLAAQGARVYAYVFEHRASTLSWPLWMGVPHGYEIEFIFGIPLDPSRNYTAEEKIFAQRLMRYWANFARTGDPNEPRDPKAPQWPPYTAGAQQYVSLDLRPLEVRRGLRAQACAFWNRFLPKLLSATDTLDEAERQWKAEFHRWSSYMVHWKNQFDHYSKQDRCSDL
Method in brief: (§1)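 Modified Ellman assay with acetylthiocholine and DTNB in 0.1 M sodium phosphate pH 7.4 (enzymes diluted with 0.1% BSA), ≤0.2% DMSO, 25 °C. At least three inhibitor concentrations per substrate level; Ki,app from Hunter–Downs equation, Ki from y-intercept and inhibition type from Ki,app vs [S].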

purified human BChE = target: T2, purified human BChE (Homo sapiens, UniProt P06276); experiment: biochemical; assay type: biochemical
T2 construct: possibly also a gift of Dr Florian Nachon (the sentence is ambiguous)
T2 sequence (P06276 29-602): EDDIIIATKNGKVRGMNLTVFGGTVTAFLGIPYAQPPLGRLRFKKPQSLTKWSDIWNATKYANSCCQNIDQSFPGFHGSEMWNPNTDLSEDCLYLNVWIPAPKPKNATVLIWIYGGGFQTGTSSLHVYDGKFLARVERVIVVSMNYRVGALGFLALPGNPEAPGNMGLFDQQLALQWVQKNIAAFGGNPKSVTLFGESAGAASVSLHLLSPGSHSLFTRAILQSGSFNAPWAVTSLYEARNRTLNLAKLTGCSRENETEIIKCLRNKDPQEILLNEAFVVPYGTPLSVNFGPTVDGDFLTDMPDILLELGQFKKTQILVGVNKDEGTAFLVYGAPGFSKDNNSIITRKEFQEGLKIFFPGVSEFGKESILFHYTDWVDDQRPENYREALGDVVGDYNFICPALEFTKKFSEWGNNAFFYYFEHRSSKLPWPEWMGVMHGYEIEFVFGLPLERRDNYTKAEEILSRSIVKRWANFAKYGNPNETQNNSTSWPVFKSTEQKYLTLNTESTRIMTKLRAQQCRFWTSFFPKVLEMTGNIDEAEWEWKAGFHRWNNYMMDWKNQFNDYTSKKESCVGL
Method in brief: as §1

[2] = Reverse-phase thin-layer chromatographic lipophilicity (RF, RM0); assay type: physicochemical; settings: for RM0: intercept of RM = RM0 + bC; for b: slope of RM = RM0 + bC; for RF, Methanol/Water/Hydrochloric acid (conc.), mobile phase I / RF, Dioxane/Water/Hydrochloric acid (conc.), mobile phase II / RF, Methanol/Water/Hydrochloric acid (conc.), mobile phase II / RF, Acetone/Water/Hydrochloric acid (conc.), mobile phase III / RF, Dioxane/Water/Hydrochloric acid (conc.), mobile phase III / RF, Methanol/Water/Hydrochloric acid (conc.), mobile phase III / RF, Dioxane/Water/Hydrochloric acid (conc.), mobile phase IV / RF, Acetone/Water/Hydrochloric acid (conc.), mobile phase IV / RF, Methanol/Water/Hydrochloric acid (conc.), mobile phase IV / RF, Acetone/Water/Hydrochloric acid (conc.), mobile phase IX / RF, Methanol/Water/Hydrochloric acid (conc.), mobile phase IX / RF, Dioxane/Water/Hydrochloric acid (conc.), mobile phase V / RF, Acetone/Water/Hydrochloric acid (conc.), mobile phase V / RF, Methanol/Water/Hydrochloric acid (conc.), mobile phase V / RF, Dioxane/Water/Hydrochloric acid (conc.), mobile phase VI / RF, Acetone/Water/Hydrochloric acid (conc.), mobile phase VI / RF, Methanol/Water/Hydrochloric acid (conc.), mobile phase VI / RF, Acetone/Water/Hydrochloric acid (conc.), mobile phase VII / RF, Methanol/Water/Hydrochloric acid (conc.), mobile phase VII / RF, Acetone/Water/Hydrochloric acid (conc.), mobile phase VIII / RF, Methanol/Water/Hydrochloric acid (conc.), mobile phase VIII: RP-18 silica; for RF, Methanol/Water/Hydrochloric acid (conc.), mobile phase I: I = 90%MeOH/5%H2O/5%HCl; for RF, Dioxane/Water/Hydrochloric acid (conc.), mobile phase II: II = 80%Dioxane/15%H2O/5%HCl; for RF, Methanol/Water/Hydrochloric acid (conc.), mobile phase II: II = 85%MeOH/10%H2O/5%HCl; for RF, Acetone/Water/Hydrochloric acid (conc.), mobile phase III: III = 70%AC/25%H2O/5%HCl; for RF, Dioxane/Water/Hydrochloric acid (conc.), mobile phase III: III = 70%Dioxane/25%H2O/5%HCl; for RF, Methanol/Water/Hydrochloric acid (conc.), mobile phase III: III = 80%MeOH/15%H2O/5%HCl; for RF, Dioxane/Water/Hydrochloric acid (conc.), mobile phase IV: IV = 60%Dioxane/35%H2O/5%HCl; for RF, Acetone/Water/Hydrochloric acid (conc.), mobile phase IV: IV = 65%AC/30%H2O/5%HCl; for RF, Methanol/Water/Hydrochloric acid (conc.), mobile phase IV: IV = 75%MeOH/20%H2O/5%HCl; for RF, Acetone/Water/Hydrochloric acid (conc.), mobile phase IX: IX = 40%AC/55%H2O/5%HCl; for RF, Methanol/Water/Hydrochloric acid (conc.), mobile phase IX: IX = 50%MeOH/45%H2O/5%HCl; for RF, Dioxane/Water/Hydrochloric acid (conc.), mobile phase V: V = 50%Dioxane/45%H2O/5%HCl; for RF, Acetone/Water/Hydrochloric acid (conc.), mobile phase V: V = 60%AC/35%H2O/5%HCl; for RF, Methanol/Water/Hydrochloric acid (conc.), mobile phase V: V = 70%MeOH/25%H2O/5%HCl; for RF, Dioxane/Water/Hydrochloric acid (conc.), mobile phase VI: VI = 40%Dioxane/55%H2O/5%HCl; for RF, Acetone/Water/Hydrochloric acid (conc.), mobile phase VI: VI = 55%AC/40%H2O/5%HCl; for RF, Methanol/Water/Hydrochloric acid (conc.), mobile phase VI: VI = 65%MeOH/30%H2O/5%HCl; for RF, Acetone/Water/Hydrochloric acid (conc.), mobile phase VII: VII = 50%AC/45%H2O/5%HCl; for RF, Methanol/Water/Hydrochloric acid (conc.), mobile phase VII: VII = 60%MeOH/35%H2O/5%HCl; for RF, Acetone/Water/Hydrochloric acid (conc.), mobile phase VIII: VIII = 45%AC/50%H2O/5%HCl; for RF, Methanol/Water/Hydrochloric acid (conc.), mobile phase VIII: VIII = 55%MeOH/40%H2O/5%HCl
Method in brief: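 Reverse-phase TLC using mobile phases of methanol, acetone or dioxane with water and hydrochloric acid. Methanol varied in 10% steps; development distance 4.5 cm, ambient temperature (22±2 °C). RF measured and RM0 derived from retention.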

[3] = log (Ki/µM AChE), read-out: Y Measured 1 log(ki)Ache (converted)
[4] = ± standard error, 25 °C, ATCh substrate, read-out: Ki AChE
[5] = logarithm of Ki in µM, BChE, dependent variable of the QSAR model, read-out: Y Measured 2 log(ki)Bche, log (Ki/µM BChE) (converted)
[6] = ± standard error, 25 °C, ATCh substrate, read-out: Ki BChE
[7] = Acetone/Water/Hydrochloric acid (conc.)
[8] = Dioxane/Water/Hydrochloric acid (conc.)
[9] = Methanol/Water/Hydrochloric acid (conc.)

Row | Compound | FRAP ([1]; 10 µM compound) [µM] | FRAP ([1]; 100 µM compound) [µM] | antioxidant power lower than that of Trolox [1] [times] | IS (recombinant human AChE) | Ki (recombinant human AChE; [3]) [µM] | Ki (recombinant human AChE; [4]) [µM] | decrease in BChE inhibition vs compound 5 (purified human BChE) | Ki (purified human BChE; [5]) [µM] | Ki (purified human BChE; [6]) [µM] | RM0 [2, 7] | b [2, 7] | RM0 [2, 8] | b [2, 8] | RM0 [2, 9] | b [2, 9] | RF, Methanol/Water/Hydrochloric acid (conc.), mobile phase I [2] | RF, Dioxane/Water/Hydrochloric acid (conc.), mobile phase II [2] | RF, Methanol/Water/Hydrochloric acid (conc.), mobile phase II [2] | RF, Acetone/Water/Hydrochloric acid (conc.), mobile phase III [2] | RF, Dioxane/Water/Hydrochloric acid (conc.), mobile phase III [2] | also measured
1 | Clc1ccc2c(Nc3ccc(NCC45CC6CC(CC(C6)C4)C5)cc3)ccnc2c1 [Compound 17] | 53 ± 4 | 512 ± 117 | ~10 | 0.8 | 3.3 | 3.3 ± 0.4 | up to 275 times | 2.5 | 2.5 ± 0.5 | 2.018 | 3.21 | 0.9452 | 1.898 | 2.643 | 3.504 | 0.73 | 0.75 | 0.69 | 0.59 | 0.71 | RF, Methanol/Water/Hydrochloric acid (conc.), mobile phase III [2]: 0.54; RF, Dioxane/Water/Hydrochloric acid (conc.), mobile phase IV [2]: 0.71; RF, Acetone/Water/Hydrochloric acid (conc.), mobile phase IV [2]: 0.54; RF, Methanol/Water/Hydrochloric acid (conc.), mobile phase IV [2]: 0.53; RF, Acetone/Water/Hydrochloric acid (conc.), mobile phase IX [2]: 0.11; RF, Methanol/Water/Hydrochloric acid (conc.), mobile phase IX [2]: 0.09; RF, Dioxane/Water/Hydrochloric acid (conc.), mobile phase V [2]: 0.49; RF, Acetone/Water/Hydrochloric acid (conc.), mobile phase V [2]: 0.44; RF, Methanol/Water/Hydrochloric acid (conc.), mobile phase V [2]: 0.45; RF, Dioxane/Water/Hydrochloric acid (conc.), mobile phase VI [2]: 0.35; RF, Acetone/Water/Hydrochloric acid (conc.), mobile phase VI [2]: 0.39; RF, Methanol/Water/Hydrochloric acid (conc.), mobile phase VI [2]: 0.35; RF, Acetone/Water/Hydrochloric acid (conc.), mobile phase VII [2]: 0.33; RF, Methanol/Water/Hydrochloric acid (conc.), mobile phase VII [2]: 0.24; RF, Acetone/Water/Hydrochloric acid (conc.), mobile phase VIII [2]: 0.25; RF, Methanol/Water/Hydrochloric acid (conc.), mobile phase VIII [2]: 0.15
2 | Clc1ccc2c(Nc3cccc(NCC45CC6CC(CC(C6)C4)C5)c3)ccnc2c1 [Compound 18] | 22 ± 6 | 300 ± 32 | ~20 | 0.6 | 8.99 | 9 ± 0.8 | up to 275 times | 5.5 | 5.5 ± 0.6 | 2.074 | 3.191 | 1.102 | 2.114 | 2.664 | 3.468 | 0.71 | 0.75 | 0.68 | 0.55 | 0.71 | RF, Methanol/Water/Hydrochloric acid (conc.), mobile phase III [2]: 0.5; RF, Dioxane/Water/Hydrochloric acid (conc.), mobile phase IV [2]: 0.7; RF, Acetone/Water/Hydrochloric acid (conc.), mobile phase IV [2]: 0.5; RF, Methanol/Water/Hydrochloric acid (conc.), mobile phase IV [2]: 0.49; RF, Acetone/Water/Hydrochloric acid (conc.), mobile phase IX [2]: 0.1; RF, Methanol/Water/Hydrochloric acid (conc.), mobile phase IX [2]: 0.09; RF, Dioxane/Water/Hydrochloric acid (conc.), mobile phase V [2]: 0.48; RF, Acetone/Water/Hydrochloric acid (conc.), mobile phase V [2]: 0.4; RF, Methanol/Water/Hydrochloric acid (conc.), mobile phase V [2]: 0.41; RF, Dioxane/Water/Hydrochloric acid (conc.), mobile phase VI [2]: 0.3; RF, Acetone/Water/Hydrochloric acid (conc.), mobile phase VI [2]: 0.36; RF, Methanol/Water/Hydrochloric acid (conc.), mobile phase VI [2]: 0.34; RF, Acetone/Water/Hydrochloric acid (conc.), mobile phase VII [2]: 0.3; RF, Methanol/Water/Hydrochloric acid (conc.), mobile phase VII [2]: 0.22; RF, Acetone/Water/Hydrochloric acid (conc.), mobile phase VIII [2]: 0.21; RF, Methanol/Water/Hydrochloric acid (conc.), mobile phase VIII [2]: 0.13
